Values of other authors as cited in US20240115517A1, “COMPOSITIONS AND METHODS FOR IMPROVING SKIN BARRIER” (LYCORED LTD., priority 0001, published 2024).

Legend:
[1] = 4 mg/day, 9 weeks

For CC1=C(/C=C/C(C)=C/C=C/C(C)=C/C=C/C=C(C)/C=C/C=C(C)/C=C/C2=C(C)C(=O)[C@@H](O)CC2(C)C)C(C)(C)C[C@H](O)C1=O [astaxanthin, Astaxanthin], the “minimal erythema dose of UV” value [1] is listed as “increase”, the “increase of TEWL at the site of irradiation versus control group” value ([1]; after UV irradiation) is listed as “significantly less” and the “TEWL compared to controls” value (36 male subjects; 6 mg per day, 6 weeks) is listed as “significantly reduced”. The “minor wrinkles, age spot size, elasticity, hydration” value (36 male subjects; astaxanthin supplementation) was “improvements”.
